Reference: paper PMC5654414, “In vitro and in vivo comparative and competitive activity-based protein profiling of GH29 α-L-fucosidases” (Chemical Science, 2015)

Assays:
[1] = target: T1, recombinant human FUCA1 (human lysosomal α-L-fucosidase) (Homo sapiens, UniProt P04066); test: In vitro inhibition of FUCA1 activity, 4-methylumbelliferyl-α-L-fucopyranoside substrate, lysates of COS-7 cells over-expressing enzyme; assay type: biochemical
T1 construct: expressed in transfected cells; host or cells: COS-7
T1 sequence (P04066 32-466): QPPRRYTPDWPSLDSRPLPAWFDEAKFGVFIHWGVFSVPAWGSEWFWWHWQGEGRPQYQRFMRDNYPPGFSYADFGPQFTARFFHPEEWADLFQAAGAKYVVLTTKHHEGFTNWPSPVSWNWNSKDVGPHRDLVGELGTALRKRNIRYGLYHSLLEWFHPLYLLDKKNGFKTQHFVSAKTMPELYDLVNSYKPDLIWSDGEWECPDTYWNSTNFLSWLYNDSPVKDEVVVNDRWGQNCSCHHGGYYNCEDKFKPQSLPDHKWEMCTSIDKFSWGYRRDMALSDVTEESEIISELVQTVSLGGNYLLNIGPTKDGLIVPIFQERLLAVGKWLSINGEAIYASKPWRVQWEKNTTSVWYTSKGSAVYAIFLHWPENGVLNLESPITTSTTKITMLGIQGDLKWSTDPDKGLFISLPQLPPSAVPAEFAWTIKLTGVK
Protocol: Having the cyclophellitol aziridine inhibitors and probes in hand, we determined their inhibitory potency towards the human lysosomal α-L-fucosidase, FUCA1.
The enzymatic activity of α-L-fucosidase was assayed at 37 °C by incubating with 1.5 mM 4-methylumbelliferyl-α-L-fucopyranoside as substrate in 150 mM McIlvaine buffer, pH 4.5, supplemented with 0.1% (w/v) BSA. […] The reaction was quenched by adding excess NaOH–glycine (pH 10.6), after which fluorescence was measured with a fluorimeter LS55 (Perkin Elmer) using λEX 366 nm and λEM 445 nm.

[2] = target: T2, FUCA1 (recombinant human GH29 α-L-fucosidase per table title) (Homo sapiens, UniProt P04066); test: In situ inhibition of FUCA1 in living fibroblasts; assay type: cell-based
T2 construct: endogenous in cells; host or cells: fibroblasts
T2 sequence (P04066 32-466): T1 sequence (P04066 32-466)

[3] = target: T3, FUCA1 (Homo sapiens, UniProt P04066); test: ABP pulldown from Gaucher spleen lysate and LC-MS/MS identification; assay type: binding; design: lysates of spleens from a healthy human individual and a patient suffering from Gaucher disease; from tissue; host or cells: human spleen (normal subject and type 1 Gaucher patient); conditions: 10 μM probe, Gaucher spleen lysate
T3 sequence (P04066 32-466): T1 sequence (P04066 32-466)
Protocol: To further determine the specificity of the developed ABPs, we have analyzed the ABP-labeled proteins in a complex tissue homogenate. For this purpose, we incubated Gaucher spleen lysate with biotinylated ABP 3 or with DMSO only (control) or competitive ABP 3-labeling by first incubating with fluorescent ABP 1. Glycosylated proteins were then enriched via ConA, followed by affinity purification with streptavidin coated paramagnetic beads. The identity of biotinylated and ABP 3-labeled proteins was determined by on-bead digestion with trypsin, peptide analysis by LC-MS/MS and matching against the human UniProt database, using the Mascot search engine as previously reported.[14] […]
Gaucher spleen lysate (1 g) was cut with a sterile scalpel, mixed with 4 mL 25 mM potassium phosphate buffer (pH 6.5, supplemented with 0.1% (v/v) Triton X-100 and protease inhibitor cocktail (Roche)) and sonicated three times for 10 seconds at 100% strength and kept on ice. […] Lysate was then centrifuged for 10 min at 10 000 g, supernatant collected carefully, protein concentration determined and […] total protein was then incubated with either 0.1% (v/v) DMSO, ABP 1 or ABP 3, or firstly with 10 μM ABP 1 followed by 10 μM of ABP 3, each step taking 30 min at 37 °C, in a total volume of 1 mL McIlvaine buffer, pH 4.5. […]

[4] = tested on: recombinant α-L-fucosidase from Bacteroides thetaiotaomicron gene 2970; test: Competitive ABPP in E. coli lysate overexpressing bacterial α-L-fucosidase, ABP 1 labeling; assay type: binding
Protocol: (§1) All pre-incubations and ABP labeling-reactions occurred for 30 min at 37 °C. Total lysates (50 μg), medium (500 μg) or purified protein preparations (5 μg) were labeled with 1 μM JJB256 1 or JJB244 2, dissolved in 150 mM McIlvaine buffer, pH 4.5, incubating for 30 min at 37 °C. For ABPP, protein preparations were pre-incubated with compounds 4 (100 μM), 6 (100 μM), 7–13 (1 or 5 mM, specified in the main text) prior to the addition of 100 nM fluorescent ABPs. Influence of pH on ABP labeling involved pre-incubation at pH 3–10 prior to addition of 100 nM ABP 1. Direct labeling of retaining β-glucosidases occurred at pH 5.0 in conjunction with 100 nM ABP JJB75. Samples were then denatured with 5× Laemmli buffer (50% (v/v) 1 M Tris–HCl, pH 6.8, 50% (v/v) 100% glycerol, 10% (w/v) DTT, 10% (w/v) SDS, 0.01% (w/v) bromophenol blue), boiled for 4 min at 100 °C, and separated by gel electrophoresis on 10% (w/v) SDS-PAGE gels running continuously at 90 V.[13],[14] Wet slab-gels were scanned on fluorescence using a Typhoon Variable Mode Imager (Amersham Biosciences) using λEX 488 nm and λEM 520 nm (band pass filter 40 nm) for green fluorescent JJB256 1 and λEX 532 nm and λEM 610 nM (band pass filter 30 nm) for red fluorescent JJB244 2 and JJB75.

[5] = target: T4, α-L-fucosidase (Homo sapiens, UniProt P04066); test: Competitive ABPP in human spleen lysates (healthy and Gaucher), ABP 1 labeling; assay type: binding
T4 construct: lysates of spleens from a healthy human individual and a patient suffering from Gaucher disease; from tissue; host or cells: human spleen (normal subject and type 1 Gaucher patient)
T4 sequence (P04066 32-466): T1 sequence (P04066 32-466)
Source text: Subsequently, we exposed lysates of spleens from a healthy human individual and a patient suffering from Gaucher disease to ABP 1. […] The labeled band from human Gaucher spleen lysate is considerably more intense than the corresponding band in healthy human spleen, reflecting elevated α-L-fucosidase activity in the former. […] As before, labeling with ABP 1 was suppressed after pre-treatment with either N-benzoyl aziridine 4 or L-fuconojirimycin 6. To further ascertain that […] labels mammalian GH29 retaining α-L-fucosidases we performed a number of control experiments (ESI Fig. S2a ^†). Compound 1 labeled both FUCA1 and FUCA2 that were overexpressed in COS cells. Treatment of murine spleen lysates with 1 yielded a result essentially as observed for healthy human tissue (ESI Fig. S2b ^†).
All pre-incubations and ABP labeling-reactions occurred for 30 min at 37 °C. Total lysates (50 μg), medium (500 μg) or purified protein preparations (5 μg) were labeled with 1 μM JJB256 1 or JJB244 2, dissolved in 150 mM McIlvaine buffer, pH 4.5, incubating for 30 min at 37 °C. […] Wet slab-gels were scanned on fluorescence using a Typhoon Variable Mode Imager (Amersham Biosciences) using λEX 488 nm and λEM 520 nm (band pass filter 40 nm) for green fluorescent JJB256 1 and λEX 532 nm and λEM 610 nM (band pass filter 30 nm) for red fluorescent JJB244 2 and JJB75.

[6] = target: T3, FUCA1; test: Competitive ABPP on recombinant FUCA1 with ABP 1 labeling as readout; assay type: binding; design: expressed in transfected cells; host or cells: COS-7; conditions: competitive ABPP format
Protocol: as §1

| IC50 [1] [µM] | IC50 [2] [µM] | Structure (SMILES) | suppression of ABP 1 labeling after pre-treatment [5] | further results |
| --- | --- | --- | --- | --- |
| 0.0087 ± 0.0012 | 0.158 ± 0.022 | COc1ccc(C2=[N+]3C(=C(CCCCc4cn(CCCCCCCC(=O)N5[C@@H]6[C@@H](C)[C@@H](O)[C@@H](O)[C@H](O)[C@@H]65)nn4)c4ccc(-c5ccc(OC)cc5)n4[B-]3(F)F)C=C2)cc1 [compound 2] |  |  |
| 0.0072 ± 0.0011 |  | C[C@H]1[C@@H](O)[C@@H](O)[C@H](O)[C@H]2[C@@H]1N2C(=O)CCCCCCCn1cc(CNC(=O)CCCCCNC(=O)CCCC[C@@H]2SC[C@@H]3NC(=O)N[C@@H]32)nn1 [compound 3] |  | identification of FUCA1 after pull-down [3]: one of the top identified proteins |
| 0.372 ± 0.0212 | 0.515 ± 0.0729 | C[C@H]1[C@@H](O)[C@@H](O)[C@H](O)[C@H]2[C@@H]1N2C(=O)c1ccccc1 [compound 4] | suppressed | fold less active ([1]; compared to 5): about eight-fold; blocking of ABP 1 labeling of major 50 kD band ([4]; pre-incubation with 100 μM): blocked |
| 0.0468 ± 0.0034 | 0.0779 ± 0.0091 | CC(=O)N1[C@@H]2[C@@H](C)[C@@H](O)[C@@H](O)[C@H](O)[C@@H]21 [compound 5] |  |  |
|  |  | C[C@@H]1NC[C@@H](O)[C@H](O)[C@@H]1O.Cl [compound 6, 1-deoxy-L-fuconojirimycin, reference compound] | suppressed | blocking of ABP 1 labeling of major 50 kD band ([4]; pre-incubation with 5 mM): blocked; blocking of ABP 1 labeling of α-L-fucosidase [6]: able to inhibit FUCA1 |
| 0.0087 ± 0.0011 | 0.0654 ± 0.0075 | C[C@H]1[C@@H](O)[C@@H](O)[C@H](O)[C@H]2[C@@H]1N2C(=O)CCCCCCCN=[N+]=[N-] [compound 23] |  | fold increase in enzyme inhibition ([1]; comparing 5 with 23): 5 fold |
